First: Cc1ccc(S(=O)(=O)NC2(S(=O)(=O)n3ccc(/C=C/C(=O)NO)c3)C=CC(c3ccccc3)=CC2)cc1 (centres undefined)
Second: Cc1ccc(S(=O)(=O)n2ccc3c(C(=O)c4ccccc4O)cccc32)cc1
The melting point of the first is higher: 119 to 126 °C for the first, 110 °C for the second.

First: CCCCc1nc2c(N)nc3ccccc3c2n1CCCNC(=O)c1ccccc1
Second: O=C(O)CCCCCC=C(c1ccccc1)c1ccccc1
The melting point of the first is higher: 189 to 190 °C for the first, 88 to 89 °C for the second.

First: CC(C)(C)c1cc(C=O)c2ccccc2c1O
Second: Cc1cccnc1-n1c(C)nc2ccccc2c1=O
The melting point of the first is higher: 195 to 196 °C for the first, 135 to 137 °C for the second.

First: Cn1nnnc1C(C=CC=O)=C(c1ccc(F)cc1)c1ccc(F)cc1
Second: CSc1nnc(-c2ccc(F)cc2)c(-c2ccc(N(C)C)cc2)n1
The melting point of the first is higher: 156 to 158 °C for the first, 144 to 146 °C for the second.

Compared with `O=C(NCC12CC3CC(CC(C3)C1)C2)c1c(Cl)ccc2nc(N3CCC(O)(C(=O)O)CC3)ccc12`, `C=CCOc1ccc(C(=O)Oc2ccc(C(=O)O)cc2)cc1C12CC3CC(CC(C3)C1)C2` is higher in melting point: 200 to 204 °C for the first, 260 to 261 °C for the second.

First: Cc1nc(N)nc(N)c1CCC(C)c1cccc(-c2ccc(C(F)(F)F)cc2)c1 (centres undefined)
Second: Cc1nc(-c2ccc(C(F)(F)F)cc2)oc1COc1ccc(OCC(=O)O)cc1
The melting point of the first is lower: 67 to 68 °C for the first, 136 to 138 °C for the second.

First: CCCn1c(=O)c2[nH]c(/C=C/c3cc(C)c(OC)cc3C)nc2n(CCC)c1=O
Second: CCOc1cc2c(cc1OC)Nc1[nH]cnc(=O)c1C2
The melting point of the first is lower: 268 to 269 °C for the first, 335 to 336 °C for the second.

First: CCOc1ccc2c(c1)c(CC(C)NC(=O)OC(C)(C)C)c1n2CCC1 (centres undefined)
Second: CC(N)c1cc(NC(=O)OC(C)(C)C)ccc1NC(=O)OC(C)(C)C (centres undefined)
The melting point of the first is lower: 89 to 90 °C for the first, 170 °C for the second.

First: Oc1ccc(O)c(C2(c3ccccc3)CC3CCC2C3)c1 (centres undefined)
Second: OC1(C#Cc2ccccc2Cc2ccccc2)CN2CCC1CC2 (centres undefined)
The melting point of the first is higher: 179 to 181 °C for the first, 156 to 157 °C for the second.

First: COC(=O)c1c2cccccc-2c(-c2ccccc2)c1-c1ccc(S(C)(=O)=O)cc1
Second: O=C(O)CN1C(=O)C(NC(=O)Nc2ccc(Cl)cc2)N=C(c2ccccc2)c2ccccc21 (centres undefined)
The melting point of the first is lower: 98 to 100 °C for the first, 178 to 180 °C for the second.

Compared with `Cc1c(-c2ccc(O)cc2)n(Cc2ccc(OCCN3CCCC3)cc2)c2ccc(O)cc12`, `Nc1cccc(-c2ccc(CC3CCCCN3Cc3ccccc3)cc2)n1` (centres undefined) is lower in melting point: 105 to 110 °C for the first, 70 to 85 °C for the second.

Compared with `Cn1cncc1[N+](=O)[O-]`, `Cc1cn(C)c(C(=O)O)c1-c1ccccc1[N+](=O)[O-]` is higher in melting point: 58 to 60 °C for the first, 205 °C for the second.

Compared with `CC(=O)OC1(C(C)=O)C(C)CC2C3CC(C)C4=CC(=O)C=CC4(C)C3(F)C(O)CC21C` (centres undefined), `CC(=O)OC1CSC(Oc2ccccc2C(C)=O)C(OC(C)=O)C1OC(C)=O` (centres undefined) is lower in melting point: 291 to 293 °C for the first, 112 °C for the second.

First: COC(=O)P(=O)(OC)OC
Second: COc1cccc(CSCCNC(=O)c2c(OC)cccc2OC)c1
The melting point of the first is higher: 150 °C for the first, 41 to 43 °C for the second.

Compared with `CC(=NO)c1ccc2c(c1)CCC2`, `Cc1ccc(O[C@@H]2CCNC[C@H]2O)cc1C` (relative stereo) is higher in melting point: 104 °C for the first, 125 to 127 °C for the second.

Compared with `CCOC(=O)CNc1ccc2oc3c(OC)ccc(C(=O)Nc4c(Cl)cncc4Cl)c3c2c1`, `CCOC(=O)c1c(CN(CC)CC)nc2ccc(Cl)cc2c1-c1ccc(Cl)cc1` is lower in melting point: over 270 °C for the first, 132 to 133 °C for the second.

Compared with `Nc1nonc1-c1nc2ccccc2n1CC(=NO)c1ccc(Br)cc1`, `Sc1nc2ccccc2n1Cc1c(Cl)cccc1Cl` is higher in melting point: 198 to 201 °C for the first, 234 to 235 °C for the second.

Compared with `COC1(c2cc(F)cc(Sc3ccc4c(c3)SCC(=O)N4C)c2)CCOCC1`, `COc1ccccc1C1=Nc2ccc(N3CCOCC3)cc2C(=O)C1` is higher in melting point: 131 to 133 °C for the first, 262 to 264 °C for the second.

First: C[C@H](Nc1ncnc2[nH]cnc12)c1oc2ccc(Br)cc2c(=O)c1-c1ccccc1
Second: O=c1c(-c2ccccc2)coc2ccccc12
The melting point of the first is higher: 151 to 154 °C for the first, 132 to 134 °C for the second.

Compared with `CCOC(=O)N1CCOC(CC23CC(c4ccccc42)c2ccccc23)C1` (centres undefined), `O=C(N[C@@H](Cc1ccc2ccccc2c1)[C@H]1CO1)OCc1ccccc1` is lower in melting point: 143 to 144 °C for the first, 115 to 116 °C for the second.

First: CC(C)(CCO)c1ccc2ncc(C(=O)NCc3ccc(Cl)cc3)c(O)c2c1
Second: CN(C)Cc1cc(Cl)ccc1OCCN(C)Cc1ccc(C(N)=O)cc1
The melting point of the first is higher: 184 to 192 °C for the first, 108 to 109 °C for the second.

First: CC(C)(C)OC(=O)[C@@H]1CCCN1C(=O)CNS(=O)(=O)c1cccc2cccnc12
Second: CC(C)(C)OC(=O)NCCNC(=O)c1ncccc1Oc1cccc(Cl)c1
The melting point of the first is higher: 150 to 153 °C for the first, 86 to 87 °C for the second.

First: FC(F)(F)Oc1cccc(COc2cccc(-c3nnc(Nc4ccc(Cl)c(Cl)c4)s3)c2)c1
Second: FC(F)(F)Oc1ccc(Nc2cc(-c3ccccc3)ncn2)cc1
The melting point of the first is lower: 166 to 167 °C for the first, 245 to 247 °C for the second.

First: COC(=O)c1ccc(-n2c(C)ccc2C#N)cc1
Second: Cn1c(CC#N)ccc1C(=O)c1ccc(Br)cc1
The melting point of the first is lower: 118 to 119 °C for the first, 139 to 141 °C for the second.

First: COc1cc2cc3c(nc2cc1OC)CCc1ccc(N)cc1-3
Second: COc1ccc(SC2=C(C(=O)NO)CCC2=CCCc2ccccc2)cc1OC
The melting point of the first is higher: 185 °C for the first, 44 to 46 °C for the second.

Compared with `CC1CCN(C(=O)[C@H](CCCCNc2ccccn2)NS(=O)(=O)c2ccc3ccccc3c2)CC1`, `COC(=O)CN1CCC(OC)(c2cccc(OCc3ccc4ccccc4c3)c2)C1` (centres undefined) is lower in melting point: 127 to 129 °C for the first, 78 to 80 °C for the second.

First: Nc1nc(-c2ccncc2)nc2c1c(Cl)nn2C1CCCC1
Second: Cc1ncccc1Cn1nnnc1-c1cc(Cl)ccc1Cl
The melting point of the first is lower: 132 to 134 °C for the first, 172 to 174 °C for the second.

Compared with `C=CC(C)(C)C(O)(COc1ccc(-c2ccccc2)cc1)Cn1cncn1` (centres undefined), `C=Cc1ccc2nc(-c3ccccc3)c(-c3ccccc3)nc2c1` is higher in melting point: 85 to 87 °C for the first, 122 to 123 °C for the second.

First: CSc1cc2c(cn1)c(=O)n1nccc1n2C
Second: CNC(=O)c1cnc(Cl)cc1-c1ccccc1C
The melting point of the first is higher: 267 °C for the first, 91 to 93 °C for the second.

First: CCN(CC)C(=O)OC1c2ccccc2C(=O)N1c1ccc2ccc(Cl)nc2n1 (centres undefined)
Second: Cc1nc2c(OCc3c(Cl)ccc(N(C)C(=O)CNC(=O)CN4C(=O)c5ccccc5C4=O)c3Cl)cccn2c1Br
The melting point of the first is lower: 142 to 144 °C for the first, 148 to 150 °C for the second.

First: CNc1cncc(C(F)(F)F)c1
Second: C=C(C)C(=O)Nc1ccc(NC(=O)C(F)(F)C(F)(F)C(F)(F)F)c(O)c1
The melting point of the first is lower: 69 to 70 °C for the first, 247 to 250 °C for the second.

First: Cc1cc(O)c(S(=O)(=O)CC(C)C)c(=O)o1
Second: Cc1ccc2c(c1)C(=O)C(=O)N2CCCN(C(C)C)C(C)C
The melting point of the first is higher: 90 to 91 °C for the first, 87 to 89 °C for the second.

First: COC(=O)N[C@H](C(=O)NN(Cc1ccc(-c2cncs2)cc1)C[C@H](O)[C@H](Cc1ccccc1)NC(=O)[C@@H](NC(=O)OC)C(C)(C)C)C(C)C
Second: O=C(O)c1sc2cc(OCc3cccnc3)ccc2c1S(=O)c1ccccc1CO (centres undefined)
The melting point of the first is lower: 134 to 135 °C for the first, 210 °C for the second.

Compared with `C#CC(C)NCC(O)COc1ccccc1C=Cc1nnc(C)s1` (centres undefined), `COc1ccc(Cc2nnc(N[C@H]3CC[C@H](C(C)C)CC3)c3ccccc23)cn1` is lower in melting point: 143 to 145 °C for the first, 124 to 125 °C for the second.

First: O=c1c2c(N3CCNCC3)cc(Cl)cc2n(Cc2ccccc2)c(=O)n1Cc1ccccc1
Second: Fc1ccc(Cn2c(NC3CCN(CCNc4nc5ccccc5n4Cc4ccc(Cl)c(Cl)c4)CC3)nc3ccccc32)cc1
The melting point of the first is higher: 115 to 123 °C for the first, 113 °C for the second.

Going from `C1=Cn2ccnc2Cc2ccccc21` to `Brc1cn2cc(-c3ccccc3)nc2c(Br)n1`, the melting point rises from 85.5 °C to 254 °C.

First: Cc1cc(C)c(N2CCCCC2)cc1NS(=O)(=O)C(F)(F)F
Second: COc1cc(Cl)nc(NC(=O)NS(=O)(=O)C(C)S(=O)(=O)N2CCCC2)n1 (centres undefined)
The melting point of the first is lower: 92 to 94 °C for the first, 158 to 160 °C for the second.

First: CC(=O)SCCNC(=O)[C@H](CS)NC(=O)C(C)C
Second: Nc1nc2[nH]c(CCCCC#Cc3ccc(C(=O)N[C@@H](CCC(=O)O)C(=O)O)s3)cc2c(=O)[nH]1
The melting point of the first is lower: 117 to 120 °C for the first, 197 to 198 °C for the second.

Compared with `C=CCC1(CC=C)CCC(=Cc2ccc(Cl)cc2)C1(O)Cn1cncn1` (centres undefined), `N#Cc1ccnc(OCc2nc3cc(Cl)ccc3s2)c1` is higher in melting point: 128 °C for the first, 224 to 227 °C for the second.

Compared with `O=C(O)Cn1nc(Br)nc1Br`, `O=C(O)CSCCSc1ccc(O)cc1` is lower in melting point: 147 to 152 °C for the first, 105 °C for the second.

First: CC(C)CN1C(=O)CN=C(N2CCN(C)CC2)c2ccccc21
Second: O=C(CCCCCCC(=O)N1CCN(CCc2ccc3ccccc3c2)CC1)NO
The melting point of the first is higher: 134 to 136 °C for the first, 118 to 120 °C for the second.

Compared with `Cc1c(CC(N)=O)c2cc(OCCCP(=O)(O)O)ccc2n1Cc1ccccc1`, `CC1(C)CON(Cc2ccc(NC(=O)c3ncccc3C(=O)O)cc2Cl)C1=O` is lower in melting point: 199 to 203 °C for the first, 94 to 96 °C for the second.

First: CC(=O)Oc1cccc(-c2noc(C)n2)c1
Second: CCOc1ccc(S(C)(=O)=O)cc1C(=O)O
The melting point of the first is lower: 94 °C for the first, 139 to 141 °C for the second.

Compared with `CC1CCN(CCCC(=O)c2ccc3c(c2)C(=O)c2cc(C(=O)CCCN4CCC(C)CC4)ccc2-3)CC1`, `COc1cc(C(=O)NC2CCN(C(=O)CN(C)C)CC2)ccc1Nc1ncc2c(n1)N(C1CCCCC1)CC(F)(F)C(=O)N2C` is higher in melting point: 178 to 180 °C for the first, 190 to 191 °C for the second.

First: COc1ccc(S(=O)(=O)N2C(=O)C(=O)c3cc(Cl)ccc32)c(OC)c1
Second: COc1ccccc1C1=C(C#N)C(c2ccccc2OC)c2c[nH]nc2N1 (centres undefined)
The melting point of the first is lower: 194 °C for the first, 220 °C for the second.

First: CCOC(=O)c1ccc(-c2ccc3c(c2)C(Nc2ccc(Cl)cc2)CC(C)N3C(C)=O)cc1 (centres undefined)
Second: COc1cc(N2CCC(N3CCN(C)CC3)CC2)ccc1Nc1ncc2ccc(-c3ccc(Cl)nc3)n2n1
The melting point of the first is lower: 114 °C for the first, 186 to 188 °C for the second.

First: CCCn1nc(C)c(NC(C)=O)c1C#N
Second: COC(=O)NC1=NCC(c2ccccc2)N1C (centres undefined)
The melting point of the first is lower: 129 to 131 °C for the first, 145 to 147 °C for the second.

Compared with `COc1cc(OC)c(C=O)cn1`, `CN1C(O)=C(C(=O)Nc2ccccc2Cl)c2ccsc2S1(=O)=O` is higher in melting point: 97 to 98 °C for the first, 168 to 170 °C for the second.

Compared with `O=C(O)CCCc1cc2nc(Cl)ccc2n1S(=O)(=O)c1c(F)cc(F)cc1F`, `Cc1cc(-c2nc(C(F)(F)F)cn2-c2ccc(S(C)(=O)=O)c(F)c2)ccc1-c1cscn1` is higher in melting point: 135 to 150 °C for the first, 197 to 198 °C for the second.

`C[C@@H]1Cc2ccsc2[C@H](C)N1CCNS(=O)(=O)c1ccc([N+](=O)[O-])cc1` (relative stereo) gave a melting point of 116 to 119 °C.
